In ChEMBL document CHEMBL5046276 (J Med Chem, 2022):
The source made the active and inactive calls. No cut-off for these calls is given here.

Assays:
Plasmodium falciparum [1] = assay: Antimalarial activity against asexual blood stage sulfadoxine-pyrimethamine/mefloquine-resistant Plasmodium falcipuram CP286 assessed as parasite growth inhibition incubated for 72 hrs by SYBR Green I staining based fluorescence analysis; format: functional, organism-based; settings: CP286, 72 h
Histone deacetylase 1 = Histone deacetylase 1 (Homo sapiens, UniProt Q13547); assay: Potency index, ratio of test compound IC50 to Quisinostat IC50 for inhibition of recombinant human full length C-terminal His/FLAG tagged HDAC1 (1 to 482 residues) expressed in baculovirus-infected Sf9 cells using Ac-peptide as substrate incubated for 4 hrs
[2] = target: T1, Histone deacetylase 8 (Homo sapiens) (UniProt Q9BY41); assay: Potency index, ratio of test compound IC50 to Quisinostat IC50 for inhibition of recombinant human full length C-terminal His-tagged HDAC8 expressed in baculovirus-infected Sf9 insect cells using Ac-peptide as substrate incubated for 4 hrs followed by trypsin addition and further incubated for 2 hrs
T1 sequence (whole entry): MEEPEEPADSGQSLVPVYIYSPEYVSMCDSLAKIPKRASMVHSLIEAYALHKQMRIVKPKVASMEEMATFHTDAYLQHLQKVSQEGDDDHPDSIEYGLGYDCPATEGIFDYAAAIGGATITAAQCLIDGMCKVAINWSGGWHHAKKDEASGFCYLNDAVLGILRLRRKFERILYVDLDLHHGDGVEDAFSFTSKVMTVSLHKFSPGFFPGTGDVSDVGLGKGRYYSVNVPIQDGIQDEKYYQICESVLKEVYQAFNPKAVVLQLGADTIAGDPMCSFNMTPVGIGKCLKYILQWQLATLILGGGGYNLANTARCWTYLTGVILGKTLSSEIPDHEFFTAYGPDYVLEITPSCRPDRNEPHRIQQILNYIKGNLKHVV

Plasmodium falciparum [3] = assay: Antimalarial activity against late stage (IV) Plasmodium falciparum NF54 gametocytes transfected with p230p-Luc assessed as reduction in gametocyte viability incubated for 48 hrs by luciferase reporter gene based bioluminescence assay; format: functional, organism-based; settings: NF54, 48 h
[4] = In vivo inhibition of C-terminal glmS fused HDAC1 in Plasmodium falcipuram 3D7 assessed as inhibition of parasite growth incubated for 4 hrs followed by compound washout and replacement with fresh medium with compounds measured after 68 hrs by SYBR Green I staining based fluorescence analysis; format: functional, organism-based, Plasmodium falciparum
Plasmodium falciparum [5] = assay: In vivo inhibition of C-terminal glmS fused HDAC1 in Plasmodium falcipuram 3D7 assessed as inhibition of parasite growth by measuring downregulation of RBC invasion-related genes expression level by RNA-seq analysis; format: functional, organism-based
[6] = AUC (0 to infinity) in BALB/c mouse at 5 mg/kg, ip measured after upto 24 hrs by LC-MS/MS analysis; format: ADME, organism-based; design: route intraperitoneal, dose 5 mg/kg, time <=24; settings: in vivo
[7] = Selectivity index, ratio of IC50 for cytotoxicity against HEK293T cells to IC50 for antimalarial activity against asexual blood stage wild-type Plasmodium falciparum 3D7; format: toxicity, cell-based; settings: human, read-out: Ratio IC50
[8] = Cmax in BALB/c mouse at 5 mg/kg, ip measured upto 24 hrs by LC-MS/MS analysis; format: ADME, organism-based; design: route intraperitoneal, dose 5 mg/kg, time <=24; settings: in vivo
[9] = target: T2, Protein deacetylase HDAC6 (Homo sapiens) (UniProt Q9UBN7); assay: Potency index, ratio of test compound IC50 to Quisinostat IC50 for inhibition of recombinant human full length N-terminal GST tagged HDAC6 (1 to 1215 residues) expressed in baculovirus-infected Sf9 cells using Ac-peptide as substrate incubated for 4 hrs
T2 sequence (whole entry): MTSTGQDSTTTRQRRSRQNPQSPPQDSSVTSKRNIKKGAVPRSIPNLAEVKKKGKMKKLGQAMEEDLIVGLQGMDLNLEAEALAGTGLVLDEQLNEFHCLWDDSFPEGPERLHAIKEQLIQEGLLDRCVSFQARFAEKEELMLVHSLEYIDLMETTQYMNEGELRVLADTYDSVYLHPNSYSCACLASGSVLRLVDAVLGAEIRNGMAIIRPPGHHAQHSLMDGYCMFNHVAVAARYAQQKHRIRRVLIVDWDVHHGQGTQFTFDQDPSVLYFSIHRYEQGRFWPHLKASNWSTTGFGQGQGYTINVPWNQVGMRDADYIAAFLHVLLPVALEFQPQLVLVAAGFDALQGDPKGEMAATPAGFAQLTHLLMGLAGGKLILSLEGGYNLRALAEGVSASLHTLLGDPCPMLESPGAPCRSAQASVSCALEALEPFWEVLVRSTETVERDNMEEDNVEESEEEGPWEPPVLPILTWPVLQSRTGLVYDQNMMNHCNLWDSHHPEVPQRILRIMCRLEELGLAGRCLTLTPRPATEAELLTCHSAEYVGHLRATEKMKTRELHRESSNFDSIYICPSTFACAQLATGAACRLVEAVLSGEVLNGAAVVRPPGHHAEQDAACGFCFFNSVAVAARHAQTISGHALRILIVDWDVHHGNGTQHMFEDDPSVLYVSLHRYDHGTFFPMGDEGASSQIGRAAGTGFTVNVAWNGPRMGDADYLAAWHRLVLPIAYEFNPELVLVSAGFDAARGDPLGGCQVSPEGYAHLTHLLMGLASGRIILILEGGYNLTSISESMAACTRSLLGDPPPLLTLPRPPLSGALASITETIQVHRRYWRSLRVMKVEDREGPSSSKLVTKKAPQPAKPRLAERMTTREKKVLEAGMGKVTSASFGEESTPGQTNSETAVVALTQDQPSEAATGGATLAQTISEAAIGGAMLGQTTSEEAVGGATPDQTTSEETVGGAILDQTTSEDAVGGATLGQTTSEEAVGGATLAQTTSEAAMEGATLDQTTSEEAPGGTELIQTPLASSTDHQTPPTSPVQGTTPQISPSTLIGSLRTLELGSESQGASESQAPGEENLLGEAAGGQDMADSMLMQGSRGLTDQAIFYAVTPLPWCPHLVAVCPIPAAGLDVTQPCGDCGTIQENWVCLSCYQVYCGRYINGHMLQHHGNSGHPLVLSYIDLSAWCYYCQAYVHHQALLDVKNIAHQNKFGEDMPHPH

Plasmodium berghei = assay: Antimalarial activity against liver stage transgenic Plasmodium berghei ANKA sporozoites transfected with GFP-Luc infected in BALB/c mouse assessed as delayed progression of infection at 30 mg/kg, iv measured for 1 to 4 days post-administration by IVIS spectrum in vivo imaging analysis; format: functional, organism-based; settings: time 1-4 day
Histone deacetylase 8 = target: T3, Histone deacetylase 8 (Homo sapiens, UniProt Q9BY41); assay: Inhibition of recombinant human full length C-terminal His-tagged HDAC8 expressed in baculovirus-infected Sf9 insect cells using Ac-peptide as substrate incubated for 4 hrs followed by trypsin addition and further incubated for 2 hrs
T3 sequence (Q9BY41 whole entry): T1 sequence (whole entry)

[10] = Metabolic stability in mouse liver microsomes assessed as half life at […] incubated for 45 mins in presence of NADPH by LC/MS analysis; format: ADME, Microsome; settings: liver microsomes
[11] = Toxicity in BALB/c mouse infected with blood stage Plasmodium yoelii assessed as body weight loss at 30 to 90 mg/kg, ip qd for 5 days and measured upto 60 days; format: organism-based; settings: in vivo, dose 30-90 mg/kg, time <=60 day
[12] = Toxicity in BALB/c mouse infected with liver stage transgenic Plasmodium berghei ANKA sporozoites transfected with GFP-Luc assessed as animal death at 30 mg/kg, iv measured on day 4 post-administration; format: organism-based; settings: in vivo, 96 h, time 4 day

Histone deacetylase 1, sequence (Q13547 whole entry, the tested form may be a part): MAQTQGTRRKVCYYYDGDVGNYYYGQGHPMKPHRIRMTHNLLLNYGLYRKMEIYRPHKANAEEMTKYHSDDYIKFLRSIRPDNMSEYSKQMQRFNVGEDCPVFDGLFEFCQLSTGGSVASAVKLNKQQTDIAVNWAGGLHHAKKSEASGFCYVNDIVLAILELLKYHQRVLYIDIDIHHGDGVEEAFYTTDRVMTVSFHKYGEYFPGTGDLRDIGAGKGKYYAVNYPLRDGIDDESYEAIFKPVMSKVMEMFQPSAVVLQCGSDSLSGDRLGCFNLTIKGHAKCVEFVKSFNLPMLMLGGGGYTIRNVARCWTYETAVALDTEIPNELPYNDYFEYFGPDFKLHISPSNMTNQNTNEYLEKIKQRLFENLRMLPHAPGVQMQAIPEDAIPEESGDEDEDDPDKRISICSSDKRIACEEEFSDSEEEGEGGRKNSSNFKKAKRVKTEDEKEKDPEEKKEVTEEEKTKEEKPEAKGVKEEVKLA

Cl.Cn1cc(CN2CC3(CCN(c4ncc(C(=O)NO)cn4)C3)C2)c2ccc(C#N)cc21
IC50 (Plasmodium falciparum [1]): 5.85 nM
Ratio IC50 (Histone deacetylase 1): 3
Ratio IC50 [2]: 3
IC50 (Plasmodium falciparum [3]): 12.4 nM
IC50 [4]: 16.8 nM
inhibition (Plasmodium falciparum [5]): Active
AUC(0-inf) [6]: 640 ng·h/mL
selectivity ratio [7]: 960
Cmax [8]: 539 ng/mL
Ratio IC50 [9]: 3
Activity (Plasmodium berghei): Active
IC50 (Histone deacetylase 8): 29.9 nM
half-life [10]: 80.2 min
Activity [11]: Non-Toxic
Activity [12]: Non-Toxic
